Laboratory results taken from patent US10308655B2, “Method of treating Crohn's disease comprising a TLR2 antagonist” (AJOU UNIVERSITY INDUSTRY-ACADEMIC COOPERATION FOUNDATION, priority 2015, dated 2019).

Molecular target: T1, TLR2 (Homo sapiens, UniProt O60603)
T1 construct: host or cells: HEK293-TLR2
Assay: Pam3CSK4-induced IL-8 secretion in HEK293-TLR2 cells (IL-8 ELISA)
Type: cell-based
Conditions: compound 1 hour then co-treated with 50 nM Pam3CSK4, FIG. 15
Experimental: HEK293-TLR2 (expressed at endogenous levels of TLR1) and HEK293-Null cell lines were cultured in 96-well tissue culture plates (BD Biosciences) at a density of 1×10^4 cells/wells, 37° C., 95% air and 5% CO2 for 24 hours. In order to determine the agonist activity, a cell stimulation was achieved by treatment with 50 μM of compound and 50 nM of Pam3CSK4 (Invivogen, San Diego, Calif., USA). In order to determine the antagonist activity, cells were treated with various concentrations of compound for 1 hour and then co-treated with 50 nM of Pam3CSK4. The next day, IL-8 secretion was quantified by human IL-8 ELISA Ready-SET-Go! ® (Second generation) kit (eBioscience, San Diego, Calif., USA) according to the method of the manufacturer's guide, and the quantified results are illustrated in FIG. 15.
For the dose-dependent analysis of the top three compounds (S06690562, S01688300, S01382085) among the six compounds, the concentrations of the three compounds were varied to 12.5, 25, and 50 μM, and the secretion amount of IL-8 was analyzed as the above method. The results are illustrated in FIG. 16.

T1 sequence (O60603 21-784): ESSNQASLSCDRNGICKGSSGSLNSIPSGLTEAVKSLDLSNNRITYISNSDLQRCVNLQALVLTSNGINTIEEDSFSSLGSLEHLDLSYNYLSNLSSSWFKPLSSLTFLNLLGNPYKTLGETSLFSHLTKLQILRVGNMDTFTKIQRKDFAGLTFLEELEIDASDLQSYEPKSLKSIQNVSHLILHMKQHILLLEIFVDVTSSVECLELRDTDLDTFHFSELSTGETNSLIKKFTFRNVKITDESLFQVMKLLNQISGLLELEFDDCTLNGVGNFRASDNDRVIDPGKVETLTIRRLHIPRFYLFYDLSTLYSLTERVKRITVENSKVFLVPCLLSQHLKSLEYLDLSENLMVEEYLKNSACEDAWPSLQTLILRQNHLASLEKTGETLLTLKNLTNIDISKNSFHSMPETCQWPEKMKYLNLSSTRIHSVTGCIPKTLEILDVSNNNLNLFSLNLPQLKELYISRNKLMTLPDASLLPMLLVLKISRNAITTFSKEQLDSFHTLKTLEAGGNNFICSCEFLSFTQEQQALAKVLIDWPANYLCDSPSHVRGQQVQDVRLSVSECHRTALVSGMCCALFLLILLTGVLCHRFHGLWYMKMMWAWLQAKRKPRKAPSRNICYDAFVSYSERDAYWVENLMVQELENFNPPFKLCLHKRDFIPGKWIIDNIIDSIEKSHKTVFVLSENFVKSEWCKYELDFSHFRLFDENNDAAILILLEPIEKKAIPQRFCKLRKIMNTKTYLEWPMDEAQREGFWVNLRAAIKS

SMILES	Pam3CSK4-induced IL-8 secretion amount
COC(=O)c1c(NC(=O)NCCN2CCOCC2)sc2c1CCC2 [Compound S01382085]	greatly reduced
CCN(Cc1ccncc1)Cc1cccc(OCC(O)CN2CCC(O)CC2)c1 (centres unmarked) [Compound S01688300]	greatly reduced
CC1CCCN(C(C)CNC(=O)CCNC(=O)C2CC2C)C1 (centres unmarked) [Compound S02276077]	greatly reduced
Cc1cc(C)c(NC(=O)CNC(=O)CN(C)CC(=O)NCC(F)(F)F)c(C)c1 [Compound S06690562]	greatly reduced
CC(C)Oc1cccc(CC(=O)N2CCCN(CC(N)=O)CC2)c1 [Compound S06696686]	greatly reduced
